Results from US9211310B2, “Use of a Chinese medicine composition in preparing medicaments for treating secondary prevention of myocardial infarction” (TASLY PHARMACEUTICAL GROUP CO., LTD, priority 2010, dated 2015).

System: patients after acute myocardial infarction
Test: TCM symptom score, total and single (chest pain, chest tightness, short breath, fatigue, palpitation, spontaneous perspiration, pale complexion), same clinical trial
Type: in vivo, human
Design: total score of TCM symptom, Mean / total score of TCM symptom, Min / total score of TCM symptom, Max / total score of TCM symptom, Md / change of total score of TCM symptom, Mean / change of total score of TCM symptom, Max / change of total score of TCM symptom, Md: scale not given here
Description: 3508 patients who were in accordance with the diagnostic standards of AMI for 28 days to 2 years and differentiated as Qi deficiency and blood stagnation syndrome by TCM were studied. 0.5 g Chinese medicine composition prepared by the method of EXAMPLE 1 (Coded as QSYQ) was administrated half an hour after meal, 3 times per day.
They included the overall survival time, angina pectoris score, TCM symptom score and life quality score, where angina pectoris score, TCM symptom score and life quality score were evaluated at randomization, in 1st, 3rd, 6th, 9th, 12th month after treatment and 18th month after follow-up.
The analysis method referred to the angina pectoris score.

[1] = PP, 12 months after treatment-treatment
[2] = PP, 1 month after treatment-baseline

For `CC(=O)Oc1ccccc1C(=O)O` [Control group, aspirine], the “chest tightness score 2, percent of patients” value (Follow-up, FAS) was “(0.07%)”, the “chest tightness score 3, number of patients” value (Follow-up, FAS) was 479 and the “chest tightness score 3, percent of patients” value (Follow-up, FAS) was “(33.57%)”. The “chest tightness score 6, number of patients” value (Follow-up, FAS) was 192, the “chest tightness score 6, percent of patients” value (Follow-up, FAS) was “(13.45%)” and the “chest tightness score 9, number of patients” value (Follow-up, FAS) was 1. For the same molecule, the “chest tightness score 9, percent of patients” value (Follow-up, FAS) was “(0.07%)”, the “chest pain score 0, number of patients” value (Follow-up, PP) was 733 and the “chest pain score 0, percent of patients” value (Follow-up, PP) was “(52.62%)”. For the same molecule, the “chest pain score 2, number of patients” value (Follow-up, PP) was 1, the “chest pain score 2, percent of patients” value (Follow-up, PP) was “(0.07%)” and the “chest pain score 3, number of patients” value (Follow-up, PP) was 472. For the same molecule, the “chest pain score 3, percent of patients” value (Follow-up, PP) was “(33.88%)”, the “chest pain score 6, number of patients” value (Follow-up, PP) was 186 and the “chest pain score 6, percent of patients” value (Follow-up, PP) was “(13.35%)”. For the same molecule, the “chest pain score 9, number of patients” value (Follow-up, PP) was 1, the “chest pain score 9, percent of patients” value (Follow-up, PP) was “(0.07%)” and the “chest tightness score 0, number of patients” value (Follow-up, PP) was 733. The “chest tightness score 0, percent of patients” value (Follow-up, PP) was “(52.62%)”, the “chest tightness score 2, number of patients” value (Follow-up, PP) was 1 and the “chest tightness score 2, percent of patients” value (Follow-up, PP) was “(0.07%)”. The “chest tightness score 3, number of patients” value (Follow-up, PP) was 472, the “chest tightness score 3, percent of patients” value (Follow-up, PP) was “(33.88%)” and the “chest tightness score 6, number of patients” value (Follow-up, PP) was 186. For the same molecule, the “chest tightness score 6, percent of patients” value (Follow-up, PP) was “(13.35%)”, the “chest tightness score 9, number of patients” value (Follow-up, PP) was 1 and the “chest tightness score 9, percent of patients” value (Follow-up, PP) was “(0.07%)”. For the same molecule, the “change of short breath 0, % of patients” value [1] was “(53.11%)”, the “change of short breath 2, % of patients” value [1] was “(36.17%)” and the “change of short breath 2, number of patients” value [1] was 506. The “change of short breath 4, % of patients” value [1] was “(4.50%)”, the “change of short breath 4, number of patients” value [1] was 63 and the “change of short breath 6, % of patients” value [1] was “(0.79%)”. The “change of short breath 6, number of patients” value [1] was 11, the “change of short breath −2, % of patients” value [1] was “(5.36%)” and the “change of short breath −2, number of patients” value [1] was 75. For the same molecule, the “change of short breath −4, % of patients” value [1] was “(0.07%)”, the “change of short breath −4, number of patients” value [1] was 1 and the “distribution of total score of TCM symptom: Medium, number of patients” value (PP, 1 month after treatment) was 600. For the same molecule, the “distribution of total score of TCM symptom: Medium, percentage of patients” value (PP, 1 month after treatment) was “(41.04%)”, the “distribution of total score of TCM symptom: Mild, number of patients” value (PP, 1 month after treatment) was 847 and the “distribution of total score of TCM symptom: Mild, percentage of patients” value (PP, 1 month after treatment) was “(57.93%)”. For the same molecule, the “distribution of total score of TCM symptom: Severe, number of patients” value (PP, 1 month after treatment) was 15, the “distribution of total score of TCM symptom: Severe, percentage of patients” value (PP, 1 month after treatment) was “(1.03%)” and the “fatigue score 0, % of patients” value (PP, 1 month after treatment) was “(23.62%)”. For the same molecule, the “fatigue score 0, number of patients” value (PP, 1 month after treatment) was 346, the “fatigue score 2, % of patients” value (PP, 1 month after treatment) was “(60.75%)” and the “fatigue score 2, number of patients” value (PP, 1 month after treatment) was 890. For the same molecule, the “fatigue score 4, % of patients” value (PP, 1 month after treatment) was “(14.40%)”, the “fatigue score 4, number of patients” value (PP, 1 month after treatment) was 211 and the “fatigue score 6, % of patients” value (PP, 1 month after treatment) was “(1.23%)”. For the same molecule, the “fatigue score 6, number of patients” value (PP, 1 month after treatment) was 18, the “pale complexion score 0, number of patients” value (PP, 1 month after treatment) was 613 and the “pale complexion score 0, percent of patients” value (PP, 1 month after treatment) was “(41.81%)”. For the same molecule, the “pale complexion score 1, number of patients” value (PP, 1 month after treatment) was 615, the “pale complexion score 1, percent of patients” value (PP, 1 month after treatment) was “(41.95%)” and the “pale complexion score 2, number of patients” value (PP, 1 month after treatment) was 211. For the same molecule, the “pale complexion score 2, percent of patients” value (PP, 1 month after treatment) was “(14.39%)”, the “pale complexion score 3, number of patients” value (PP, 1 month after treatment) was 27 and the “pale complexion score 3, percent of patients” value (PP, 1 month after treatment) was “(1.84%)”. The “palpitation score 0, number of patients” value (PP, 1 month after treatment) was 353, the “palpitation score 0, percent of patients” value (PP, 1 month after treatment) was “(24.11%)” and the “palpitation score 1, number of patients” value (PP, 1 month after treatment) was 1. For the same molecule, the “palpitation score 1, percent of patients” value (PP, 1 month after treatment) was “(0.07%)”, the “palpitation score 2, number of patients” value (PP, 1 month after treatment) was 713 and the “palpitation score 2, percent of patients” value (PP, 1 month after treatment) was “(48.70%)”. The “palpitation score 4, number of patients” value (PP, 1 month after treatment) was 351, the “palpitation score 4, percent of patients” value (PP, 1 month after treatment) was “(23.98%)” and the “palpitation score 6, number of patients” value (PP, 1 month after treatment) was 46. The “palpitation score 6, percent of patients” value (PP, 1 month after treatment) was “(3.14%)”, the “short breath score 0, % of patients” value (PP, 1 month after treatment) was “(20.68%)” and the “short breath score 0, number of patients” value (PP, 1 month after treatment) was 303. The “short breath score 3, % of patients” value (PP, 1 month after treatment) was “(53.72%)”, the “short breath score 3, number of patients” value (PP, 1 month after treatment) was 787 and the “short breath score 6, % of patients” value (PP, 1 month after treatment) was “(24.91%)”. The “short breath score 6, number of patients” value (PP, 1 month after treatment) was 365, the “short breath score 9, % of patients” value (PP, 1 month after treatment) was “(0.68%)” and the “short breath score 9, number of patients” value (PP, 1 month after treatment) was 10. For the same molecule, the “spontaneous perspiration score 0, number of patients” value (PP, 1 month after treatment) was 518, the “spontaneous perspiration score 0, percent of patients” value (PP, 1 month after treatment) was “(35.36%)” and the “spontaneous perspiration score 1, number of patients” value (PP, 1 month after treatment) was 738. The “spontaneous perspiration score 1, percent of patients” value (PP, 1 month after treatment) was “(50.38%)”, the “spontaneous perspiration score 2, number of patients” value (PP, 1 month after treatment) was 195 and the “spontaneous perspiration score 2, percent of patients” value (PP, 1 month after treatment) was “(13.31%)”. The “spontaneous perspiration score 3, number of patients” value (PP, 1 month after treatment) was 14, the “spontaneous perspiration score 3, percent of patients” value (PP, 1 month after treatment) was “(0.96%)” and the “total score of TCM symptom, Max” value (PP, 1 month after treatment) was 34.00. The “total score of TCM symptom, Md” value (PP, 1 month after treatment) was 11.00, the “total score of TCM symptom, Mean” value (PP, 1 month after treatment) was 11.93 and the “total score of TCM symptom, Min” value (PP, 1 month after treatment) was 0.00. The “change of fatigue 0, % of patients” value [2] was “(72.24%)”, the “change of fatigue 0, number of patients” value [2] was 1054 and the “change of fatigue 1, % of patients” value [2] was “(0.07%)”. The “change of fatigue 1, number of patients” value [2] was 1, the “change of fatigue 2, % of patients” value [2] was “(17.82%)” and the “change of fatigue 2, number of patients” value [2] was 260. The “change of fatigue 4, % of patients” value [2] was “(2.40%)”, the “change of fatigue 4, number of patients” value [2] was 35 and the “change of fatigue 6, % of patients” value [2] was “(0.82%)”. For the same molecule, the “change of fatigue 6, number of patients” value [2] was 12, the “change of fatigue −2, % of patients” value [2] was “(5.96%)” and the “change of fatigue −2, number of patients” value [2] was 87. The “change of fatigue −4, % of patients” value [2] was “(0.62%)”, the “change of fatigue −4, number of patients” value [2] was 9 and the “change of fatigue −6, % of patients” value [2] was “(0.07%)”. The “change of fatigue −6, number of patients” value [2] was 1, the “change of pale complexion 0, number of patients” value [2] was 1275 and the “change of pale complexion 0, percent of patients” value [2] was “(87.45%)”. The “change of pale complexion 1, number of patients” value [2] was 131, the “change of pale complexion 1, percent of patients” value [2] was “(8.98%)” and the “change of pale complexion −1, number of patients” value [2] was 52. For the same molecule, the “change of pale complexion −1, percent of patients” value [2] was “(3.57%)”, the “change of palpitation 0, number of patients” value [2] was 1051 and the “change of palpitation 0, percent of patients” value [2] was “(71.99%)”. The “change of palpitation 1, number of patients” value [2] was 295, the “change of palpitation 1, percent of patients” value [2] was “(20.21%)” and the “change of palpitation 2, number of patients” value [2] was 22. For the same molecule, the “change of palpitation 2, percent of patients” value [2] was “(1.51%)”, the “change of palpitation 3, number of patients” value [2] was 4 and the “change of palpitation 3, percent of patients” value [2] was “(0.27%)”. The “change of palpitation −1, number of patients” value [2] was 87, the “change of palpitation −1, percent of patients” value [2] was “(5.96%)” and the “change of palpitation −2, number of patients” value [2] was 1. For the same molecule, the “change of palpitation −2, percent of patients” value [2] was “(0.07%)”.
